Assays:
[1] = tested on: SAGPY (tuber); experiment: Assay for herbicidal activity, paddy pots: SAGPY; type: in vivo, Sagittaria pygmaea MTQ; conditions: three weeks after application, 0 untreated control, 100 complete kill
From the text: (§1) To evaluate herbicidal activity against the paddy weeds in the paddy rice (ORYSA: Oryza sativa L.), the herbicidal activity of the compounds of the invention was compared to that of the compound No.109 (compound A) disclosed in U.S. Pat. […] The paddy weeds tested were ECHOR (Echinochloa crus-galli var. oryzicola), SCPJU (Scirpus juncoides ROXB), MOOVA (Monochoria vaginalis […] (Cyperus serotinus ROTTB), and SAGPY (Sagittaria pygmaea MTQ). The vessels employed were plastic pots having an area of 140 cm^2 and filled with a sandy loam soil containing 1.2% organic matter (pH 6).

[2] = tested on: MOOVA (seed); experiment: Assay for herbicidal activity, paddy pots: MOOVA; type: in vivo, Monochoria vaginalis PRESL; conditions: three weeks after application, 0 untreated control, 100 complete kill
From the text: as §1

[3] = tested on: SCPJU (seed); experiment: Assay for herbicidal activity, paddy pots: SCPJU; type: in vivo, Scirpus juncoides ROXB; conditions: three weeks after application, 0 untreated control, 100 complete kill
From the text: as §1

[4] = tested on: ECHOR (seed); experiment: Assay for herbicidal activity, paddy pots: ECHOR; type: in vivo, Echinochloa crus-galli var. oryzicola; conditions: for ECHOR (seed) herbicidal activity, visual percentage grading: three weeks after application, 0 untreated control, 100 complete kill
From the text: as §1

[5] = tested on: CYPSE (tuber); experiment: Assay for herbicidal activity, paddy pots: CYPSE; type: in vivo, Cyperus serotinus ROTTB; conditions: three weeks after application, 0 untreated control, 100 complete kill
From the text: as §1

Row | SMILES | SAGPY (tuber) herbicidal activity, visual percentage grading ([1]; 0.016 kg/ha) [%] | SAGPY (tuber) herbicidal activity, visual percentage grading ([1]; 0.063 kg/ha) [%] | SAGPY (tuber) herbicidal activity, visual percentage grading ([1]; 0.250 kg/ha) [%] | SAGPY (tuber) herbicidal activity, visual percentage grading ([1]; 1.000 kg/ha) [%] | SAGPY (tuber) herbicidal activity, visual percentage grading ([1]; 4.000 kg/ha) [%] | MOOVA (seed) herbicidal activity, visual percentage grading ([2]; 0.016 kg/ha) [%] | MOOVA (seed) herbicidal activity, visual percentage grading ([2]; 0.063 kg/ha) [%] | MOOVA (seed) herbicidal activity, visual percentage grading ([2]; 0.250 kg/ha) [%] | MOOVA (seed) herbicidal activity, visual percentage grading ([2]; 1.000 kg/ha) [%] | MOOVA (seed) herbicidal activity, visual percentage grading ([2]; 4.000 kg/ha) [%] | SCPJU (seed) herbicidal activity, visual percentage grading ([3]; 0.016 kg/ha) [%] | SCPJU (seed) herbicidal activity, visual percentage grading ([3]; 0.063 kg/ha) [%] | SCPJU (seed) herbicidal activity, visual percentage grading ([3]; 0.250 kg/ha) [%] | SCPJU (seed) herbicidal activity, visual percentage grading ([3]; 1.000 kg/ha) [%] | SCPJU (seed) herbicidal activity, visual percentage grading ([3]; 4.000 kg/ha) [%] | ECHOR (seed) herbicidal activity, visual percentage grading ([4]; 0.016 kg/ha) [%] | ECHOR (seed) herbicidal activity, visual percentage grading ([4]; 0.063 kg/ha) [%] | ECHOR (seed) herbicidal activity, visual percentage grading ([4]; 0.250 kg/ha) [%] | ECHOR (seed) herbicidal activity, visual percentage grading ([4]; 1.000 kg/ha) [%] | ECHOR (seed) herbicidal activity, visual percentage grading ([4]; 4.000 kg/ha) [%] | also measured
1 | COc1ccsc1C1=NOC(C)(COCc2c(F)cccc2F)C1 (stereo not shown) [EXAMPLE 21, 5-(2,6-difluorobenzyl)oxymethyl-5-methyl-3-(4-methoxythiophene-5-yl)-1,2-isoxazoline] | 0 | 0 | 0 | 0 | 0 | 0 | 100 | 100 | 100 | 100 | 0 | 100 | 100 | 100 | 100 | 0 | 100 | 100 | 100 | 100 | CYPSE (tuber) herbicidal activity, visual percentage grading ([5]; 0.016 kg/ha): 0%; CYPSE (tuber) herbicidal activity, visual percentage grading ([5]; 0.063 kg/ha): 40%; CYPSE (tuber) herbicidal activity, visual percentage grading ([5]; 0.250 kg/ha): 60%; CYPSE (tuber) herbicidal activity, visual percentage grading ([5]; 1.000 kg/ha): 80%; CYPSE (tuber) herbicidal activity, visual percentage grading ([5]; 4.000 kg/ha): 100%
2 | CC1(COCc2c(F)cccc2F)CC(c2sccc2Br)=NO1 (stereo not shown) [EXAMPLE 19, 5-(2,6-difluorobenzyl)oxymethyl-5-methyl-3-(4-bromothiophene-5-yl)-1,2-isoxazoline] | 0 | 0 | 0 | 20 | 30 | 20 | 95 | 100 | 100 | 100 | 0 | 100 | 100 | 100 | 100 | 100 | 100 | 100 | 100 | 100 | herbicidal activity on ECHOR, in words ([4]; low dose of 0.016 Kg/ha): completely controls the growth of ECHOR; CYPSE (tuber) herbicidal activity, visual percentage grading ([5]; 0.016 kg/ha): 30%; CYPSE (tuber) herbicidal activity, visual percentage grading ([5]; 0.063 kg/ha): 90%; CYPSE (tuber) herbicidal activity, visual percentage grading ([5]; 0.250 kg/ha): 90%; CYPSE (tuber) herbicidal activity, visual percentage grading ([5]; 1.000 kg/ha): 100%; CYPSE (tuber) herbicidal activity, visual percentage grading ([5]; 4.000 kg/ha): 100%
3 | Cc1ccc(C2=NOC(C)(COCc3cccc(F)c3)C2)s1 (stereo not shown) [EXAMPLE 3, 5-(3-fluorobenzyl)oxymethyl-5-methyl-3-(2-methylthiophene-5-yl)-1,2-isoxazoline] | 0 | 0 | 0 | 50 | 40 | 20 | 50 | 60 | 80 | 100 | 0 | 20 | 40 | 60 | 100 | 20 | 55 | 100 | 100 | 100 | CYPSE (tuber) herbicidal activity, visual percentage grading ([5]; 0.016 kg/ha): 0%; CYPSE (tuber) herbicidal activity, visual percentage grading ([5]; 0.063 kg/ha): 40%; CYPSE (tuber) herbicidal activity, visual percentage grading ([5]; 0.250 kg/ha): 90%; CYPSE (tuber) herbicidal activity, visual percentage grading ([5]; 1.000 kg/ha): 100%; CYPSE (tuber) herbicidal activity, visual percentage grading ([5]; 4.000 kg/ha): 100%
4 | Cc1cc(C)c(C2=NOC(C)(COCc3ccccc3F)C2)s1 (stereo not shown) [EXAMPLE 13, 5-(2-fluorobenzyl)oxymethyl-5-methyl-3-(2,4-dimethylthiophene-5-yl)-1,2-isoxazoline] | 0 | 0 | 0 | 0 | 30 | 50 | 70 | 80 | 90 | 100 | 30 | 30 | 70 | 90 | 100 | 50 | 70 | 100 | 100 | 100 | CYPSE (tuber) herbicidal activity, visual percentage grading ([5]; 0.016 kg/ha): 0%; CYPSE (tuber) herbicidal activity, visual percentage grading ([5]; 0.063 kg/ha): 0%; CYPSE (tuber) herbicidal activity, visual percentage grading ([5]; 0.250 kg/ha): 90%; CYPSE (tuber) herbicidal activity, visual percentage grading ([5]; 1.000 kg/ha): 100%; CYPSE (tuber) herbicidal activity, visual percentage grading ([5]; 4.000 kg/ha): 100%
5 | Cc1ccsc1C1=NOC(C)(COCc2ccccc2)C1 (stereo not shown) [EXAMPLE 5, 5-benzyloxymethyl-5-methyl-3-(4-methylthiophene-5-yl)-1,2-isoxazoline] | 0 | 0 | 20 | 50 | 70 | 0 | 10 | 80 | 90 | 100 | 0 | 10 | 30 | 60 | 100 | 0 | 30 | 100 | 100 | 100 | CYPSE (tuber) herbicidal activity, visual percentage grading ([5]; 0.016 kg/ha): 0%; CYPSE (tuber) herbicidal activity, visual percentage grading ([5]; 0.063 kg/ha): 0%; CYPSE (tuber) herbicidal activity, visual percentage grading ([5]; 0.250 kg/ha): 30%; CYPSE (tuber) herbicidal activity, visual percentage grading ([5]; 1.000 kg/ha): 100%; CYPSE (tuber) herbicidal activity, visual percentage grading ([5]; 4.000 kg/ha): 100%
6 | CC1(COCc2c(F)cccc2F)CC(c2ccc([N+](=O)[O-])s2)=NO1 (stereo not shown) [EXAMPLE 23, 5-(2,6-difluorobenzyl)oxymethyl-5-methyl-3-(2-nitrothiophene-5-yl)-1,2-isoxazoline] | 0 | 0 | 0 | 0 | 0 | 0 | 50 | 70 | 100 | 100 | 0 | 0 | 0 | 0 | 100 | 0 | 30 | 100 | 100 | 100 | CYPSE (tuber) herbicidal activity, visual percentage grading ([5]; 0.016 kg/ha): 0%; CYPSE (tuber) herbicidal activity, visual percentage grading ([5]; 0.063 kg/ha): 0%; CYPSE (tuber) herbicidal activity, visual percentage grading ([5]; 0.250 kg/ha): 50%; CYPSE (tuber) herbicidal activity, visual percentage grading ([5]; 1.000 kg/ha): 80%; CYPSE (tuber) herbicidal activity, visual percentage grading ([5]; 4.000 kg/ha): 100%

Source: US6838416B2, “Herbicidal 5-benzyloxymethyl-1,2-isoxazoline derivatives” (Korea Research Institute of Chemical Technology, priority 2000, dated 2005)
